Test results: the kinase profiling compilation of Christmann-Franck et al. (2016)

Legend:
Assay in all cases: KINOMEscan competition binding
Details in all cases: compound 10.0 µM
MAP3K2 (human) = MAP3K2 (human) (UniProt Q9Y2U5)
MAP2K3 (human) = MAP2K3 (human) (UniProt P46734)
FGFR1 (human) = FGFR1 (human) (UniProt P11362)
DCLK2 (human) = DCLK2 (human) (UniProt Q8N568)
[1] = target: JAK3 JH1 catalytic (human) (UniProt P52333)
GAK (human) = GAK (human) (UniProt O14976)
CSNK1G2 (human) = CSNK1G2 (human) (UniProt P78368)
CSNK1E (human) = CSNK1E (human) (UniProt P49674)
CDK14 (human) = CDK14 (human) (UniProt O94921)
NIM1 (human) = NIM1 (human) (UniProt Q8IY84)
EPHA8 (human) = EPHA8 (human) (UniProt P29322)
RIOK1 (human) = RIOK1 (human) (UniProt Q9BRS2)
IKBKB (human) = IKBKB (human) (UniProt O14920)
STK11 (human) = STK11 (human) (UniProt Q15831)
MAPK9 (human) = MAPK9 (human) (UniProt P45984)
CSF1R (human) = CSF1R (human) (UniProt P07333)
PIP4K2B (human) = PIP4K2B (human) (UniProt P78356)
PIM3 (human) = PIM3 (human) (UniProt Q86V86)
CHUK (human) = CHUK (human) (UniProt O15111)
HIPK2 (human) = HIPK2 (human) (UniProt Q9H2X6)
PAK6 (human) = PAK6 (human) (UniProt Q9NQU5)
MAP2K2 (human) = MAP2K2 (human) (UniProt P36507)
FER (human) = FER (human) (UniProt P16591)
PKN1 (human) = PKN1 (human) (UniProt Q16512)
ERBB4 (human) = ERBB4 (human) (UniProt Q15303)
MELK (human) = MELK (human) (UniProt Q14680)
MAPK1 (human) = MAPK1 (human) (UniProt P28482)
PRKD2 (human) = PRKD2 (human) (UniProt Q9BZL6)
MLTK (human) = MLTK (human) (UniProt Q9NYL2)
NLK (human) = NLK (human) (UniProt Q9UBE8)
BLK (human) = BLK (human) (UniProt P51451)
PTK6 (human) = PTK6 (human) (UniProt Q13882)
MST1R (human) = MST1R (human) (UniProt Q04912)
[2] = target: JAK1 JH1 catalytic (human) (UniProt P23458)
MAPKAPK5 (human) = MAPKAPK5 (human) (UniProt Q8IW41)
PI4KB (human) = PI4KB (human) (UniProt Q9UBF8)
CSNK1G3 (human) = CSNK1G3 (human) (UniProt Q9Y6M4)
RIPK2 (human) = RIPK2 (human) (UniProt O43353)
TGFBR2 (human) = TGFBR2 (human) (UniProt P37173)
STK38L (human) = STK38L (human) (UniProt Q9Y2H1)

Sequence of HIPK2 (human) (Q9H2X6 whole entry, looked up): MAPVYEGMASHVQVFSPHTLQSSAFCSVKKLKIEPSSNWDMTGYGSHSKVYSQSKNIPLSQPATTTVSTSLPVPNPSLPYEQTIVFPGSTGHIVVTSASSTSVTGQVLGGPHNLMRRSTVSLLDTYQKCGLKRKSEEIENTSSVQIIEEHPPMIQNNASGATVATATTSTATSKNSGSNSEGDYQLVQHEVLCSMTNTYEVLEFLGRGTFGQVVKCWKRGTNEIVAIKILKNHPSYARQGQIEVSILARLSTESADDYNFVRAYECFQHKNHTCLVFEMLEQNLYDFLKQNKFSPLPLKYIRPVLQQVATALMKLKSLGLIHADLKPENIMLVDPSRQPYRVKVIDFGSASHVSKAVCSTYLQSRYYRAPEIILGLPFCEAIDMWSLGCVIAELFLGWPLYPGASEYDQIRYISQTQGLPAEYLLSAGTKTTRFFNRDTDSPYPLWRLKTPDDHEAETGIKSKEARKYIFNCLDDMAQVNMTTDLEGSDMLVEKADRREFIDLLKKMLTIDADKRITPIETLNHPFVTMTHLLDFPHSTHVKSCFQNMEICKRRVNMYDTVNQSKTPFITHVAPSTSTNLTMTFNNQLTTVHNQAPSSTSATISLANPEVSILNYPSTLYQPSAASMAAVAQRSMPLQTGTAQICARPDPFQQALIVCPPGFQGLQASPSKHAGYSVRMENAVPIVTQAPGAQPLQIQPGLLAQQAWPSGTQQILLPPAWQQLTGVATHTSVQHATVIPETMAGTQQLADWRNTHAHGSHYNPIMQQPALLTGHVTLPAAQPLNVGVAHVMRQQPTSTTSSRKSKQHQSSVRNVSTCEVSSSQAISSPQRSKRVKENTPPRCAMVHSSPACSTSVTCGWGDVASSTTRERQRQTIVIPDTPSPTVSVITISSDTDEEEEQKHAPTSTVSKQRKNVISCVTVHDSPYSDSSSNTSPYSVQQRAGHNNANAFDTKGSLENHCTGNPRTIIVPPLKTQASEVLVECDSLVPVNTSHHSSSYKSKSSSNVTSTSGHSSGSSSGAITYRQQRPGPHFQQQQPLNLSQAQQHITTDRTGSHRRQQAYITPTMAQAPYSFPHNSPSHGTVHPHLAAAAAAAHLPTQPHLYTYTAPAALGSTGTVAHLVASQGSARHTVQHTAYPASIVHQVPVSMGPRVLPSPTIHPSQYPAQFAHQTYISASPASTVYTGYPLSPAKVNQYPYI
Sequence of FGFR1 (human) (P11362 whole entry, looked up): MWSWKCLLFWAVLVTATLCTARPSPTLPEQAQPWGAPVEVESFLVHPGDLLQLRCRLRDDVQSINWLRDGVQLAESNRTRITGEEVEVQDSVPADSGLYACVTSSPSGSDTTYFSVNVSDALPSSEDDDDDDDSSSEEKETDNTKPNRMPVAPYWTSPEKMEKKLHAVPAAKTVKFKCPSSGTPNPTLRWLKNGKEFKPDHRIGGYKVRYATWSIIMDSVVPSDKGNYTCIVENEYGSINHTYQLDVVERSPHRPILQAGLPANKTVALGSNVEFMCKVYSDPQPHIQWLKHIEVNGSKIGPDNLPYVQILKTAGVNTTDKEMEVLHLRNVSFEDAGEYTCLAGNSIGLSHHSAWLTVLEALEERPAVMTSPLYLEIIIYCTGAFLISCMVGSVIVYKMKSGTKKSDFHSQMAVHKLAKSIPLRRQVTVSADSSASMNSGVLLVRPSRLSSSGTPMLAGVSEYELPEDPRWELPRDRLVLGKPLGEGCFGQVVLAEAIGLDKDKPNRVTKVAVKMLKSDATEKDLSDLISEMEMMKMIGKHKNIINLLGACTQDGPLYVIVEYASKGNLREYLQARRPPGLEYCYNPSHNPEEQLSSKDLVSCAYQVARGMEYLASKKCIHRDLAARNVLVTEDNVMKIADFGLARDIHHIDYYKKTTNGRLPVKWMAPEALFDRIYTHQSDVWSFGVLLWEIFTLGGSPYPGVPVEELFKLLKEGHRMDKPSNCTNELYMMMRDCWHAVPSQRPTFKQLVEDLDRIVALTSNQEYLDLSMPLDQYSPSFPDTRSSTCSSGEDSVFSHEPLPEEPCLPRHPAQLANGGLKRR
Sequence of DCLK2 (human) (Q8N568 whole entry, looked up): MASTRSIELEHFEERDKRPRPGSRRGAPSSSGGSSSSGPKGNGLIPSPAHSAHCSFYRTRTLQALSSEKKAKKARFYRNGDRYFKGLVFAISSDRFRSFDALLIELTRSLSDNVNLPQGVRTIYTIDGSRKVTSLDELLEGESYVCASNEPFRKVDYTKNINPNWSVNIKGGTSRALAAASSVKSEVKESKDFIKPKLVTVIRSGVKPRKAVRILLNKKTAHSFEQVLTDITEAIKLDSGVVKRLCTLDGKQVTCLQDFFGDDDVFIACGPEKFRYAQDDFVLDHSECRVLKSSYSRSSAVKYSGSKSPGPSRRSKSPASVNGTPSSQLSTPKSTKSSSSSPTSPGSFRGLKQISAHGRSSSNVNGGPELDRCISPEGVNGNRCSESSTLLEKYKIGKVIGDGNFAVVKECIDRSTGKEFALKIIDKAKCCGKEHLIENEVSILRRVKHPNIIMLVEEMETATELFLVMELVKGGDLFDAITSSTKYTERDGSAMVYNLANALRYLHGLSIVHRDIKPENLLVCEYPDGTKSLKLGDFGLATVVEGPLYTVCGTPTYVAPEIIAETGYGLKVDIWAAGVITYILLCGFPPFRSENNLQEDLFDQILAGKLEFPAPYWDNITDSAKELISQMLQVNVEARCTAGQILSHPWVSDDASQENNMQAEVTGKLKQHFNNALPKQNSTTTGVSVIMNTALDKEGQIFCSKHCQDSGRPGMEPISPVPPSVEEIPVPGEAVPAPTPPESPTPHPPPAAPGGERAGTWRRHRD
Sequence of FER (human) (P16591 whole entry, looked up): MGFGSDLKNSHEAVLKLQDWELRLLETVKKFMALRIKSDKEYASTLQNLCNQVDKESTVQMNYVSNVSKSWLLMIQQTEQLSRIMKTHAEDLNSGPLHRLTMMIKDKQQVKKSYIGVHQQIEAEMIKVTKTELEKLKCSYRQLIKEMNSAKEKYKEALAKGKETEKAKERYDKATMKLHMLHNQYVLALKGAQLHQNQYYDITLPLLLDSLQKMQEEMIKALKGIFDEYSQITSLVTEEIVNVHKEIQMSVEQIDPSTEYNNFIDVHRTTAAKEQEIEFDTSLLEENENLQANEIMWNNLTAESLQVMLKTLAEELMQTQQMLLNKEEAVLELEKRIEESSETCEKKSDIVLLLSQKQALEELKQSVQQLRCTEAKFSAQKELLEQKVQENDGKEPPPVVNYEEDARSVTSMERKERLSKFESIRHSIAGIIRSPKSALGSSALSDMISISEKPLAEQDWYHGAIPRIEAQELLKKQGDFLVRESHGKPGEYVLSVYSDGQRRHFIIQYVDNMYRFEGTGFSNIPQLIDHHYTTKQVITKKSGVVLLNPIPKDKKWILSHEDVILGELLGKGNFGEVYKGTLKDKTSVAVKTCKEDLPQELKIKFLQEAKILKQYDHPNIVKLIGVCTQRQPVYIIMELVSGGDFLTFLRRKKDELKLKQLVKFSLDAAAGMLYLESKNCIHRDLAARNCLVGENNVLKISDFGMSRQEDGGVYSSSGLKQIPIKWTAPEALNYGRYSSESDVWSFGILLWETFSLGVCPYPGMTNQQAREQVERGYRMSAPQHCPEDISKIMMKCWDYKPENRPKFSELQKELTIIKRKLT
Sequence of MAP2K3 (human) (P46734 whole entry, looked up): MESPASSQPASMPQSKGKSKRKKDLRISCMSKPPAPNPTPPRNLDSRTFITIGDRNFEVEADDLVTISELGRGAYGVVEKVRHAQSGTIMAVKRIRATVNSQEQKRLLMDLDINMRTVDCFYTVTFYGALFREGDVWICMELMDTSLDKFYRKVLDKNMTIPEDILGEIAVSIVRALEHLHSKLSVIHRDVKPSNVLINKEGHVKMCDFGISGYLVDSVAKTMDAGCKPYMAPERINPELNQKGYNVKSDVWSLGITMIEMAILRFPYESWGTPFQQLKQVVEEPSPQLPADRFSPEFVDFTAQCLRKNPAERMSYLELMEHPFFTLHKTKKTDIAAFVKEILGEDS
Sequence of CHUK (human) (O15111 whole entry, looked up): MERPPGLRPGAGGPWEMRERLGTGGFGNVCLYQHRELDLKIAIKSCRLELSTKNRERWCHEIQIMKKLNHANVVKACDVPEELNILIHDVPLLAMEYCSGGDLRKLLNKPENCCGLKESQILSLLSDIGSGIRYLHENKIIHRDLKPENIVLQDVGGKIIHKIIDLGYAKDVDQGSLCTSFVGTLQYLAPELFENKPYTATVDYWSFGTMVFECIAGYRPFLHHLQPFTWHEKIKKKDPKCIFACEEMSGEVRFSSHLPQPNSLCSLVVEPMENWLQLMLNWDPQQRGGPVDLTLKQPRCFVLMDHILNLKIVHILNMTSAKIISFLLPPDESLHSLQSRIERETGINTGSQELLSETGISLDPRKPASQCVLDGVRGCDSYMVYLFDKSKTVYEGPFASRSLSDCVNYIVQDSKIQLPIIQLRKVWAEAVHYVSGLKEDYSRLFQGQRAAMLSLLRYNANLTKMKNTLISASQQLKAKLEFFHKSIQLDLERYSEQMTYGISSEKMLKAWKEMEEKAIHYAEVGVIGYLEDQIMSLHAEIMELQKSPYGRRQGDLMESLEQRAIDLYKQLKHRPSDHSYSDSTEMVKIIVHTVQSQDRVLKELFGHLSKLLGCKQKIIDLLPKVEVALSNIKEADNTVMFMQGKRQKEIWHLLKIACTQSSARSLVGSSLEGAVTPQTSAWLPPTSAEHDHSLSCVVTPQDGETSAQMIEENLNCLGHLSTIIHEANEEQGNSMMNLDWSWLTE
Sequence of MAPK1 (human) (P28482 whole entry, looked up): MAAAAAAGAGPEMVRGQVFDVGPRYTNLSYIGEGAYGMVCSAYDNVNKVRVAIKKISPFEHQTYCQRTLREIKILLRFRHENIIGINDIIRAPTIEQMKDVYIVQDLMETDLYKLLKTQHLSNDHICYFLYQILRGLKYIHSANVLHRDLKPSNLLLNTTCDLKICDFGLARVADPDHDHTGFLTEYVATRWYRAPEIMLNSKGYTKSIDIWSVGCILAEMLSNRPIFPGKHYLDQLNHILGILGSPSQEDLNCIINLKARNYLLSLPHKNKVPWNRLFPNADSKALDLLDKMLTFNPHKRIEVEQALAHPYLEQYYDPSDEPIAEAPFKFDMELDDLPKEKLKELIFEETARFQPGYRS

What does the source list for CC(=O)c1c(C)c2cnc(Nc3ccc(N4CCNCC4)cn3)nc2n(C2CCCC2)c1=O?
kinase still bound, per cent of control (MAP3K2 (human)): 49%; kinase still bound, per cent of control (MAP2K3 (human)): 19%; kinase still bound, per cent of control (FGFR1 (human)): 66%; kinase still bound, per cent of control (DCLK2 (human)): 2.9%; kinase still bound, per cent of control [1]: 8.5%; kinase still bound, per cent of control (GAK (human)): 4.4%; kinase still bound, per cent of control (CSNK1G2 (human)): 92%; kinase still bound, per cent of control (CSNK1E (human)): 16%; kinase still bound, per cent of control (CDK14 (human)): 5%; kinase still bound, per cent of control (NIM1 (human)): 40%; kinase still bound, per cent of control (EPHA8 (human)): 93%; kinase still bound, per cent of control (RIOK1 (human)): 38%; kinase still bound, per cent of control (IKBKB (human)): 80%; kinase still bound, per cent of control (STK11 (human)): 82%; kinase still bound, per cent of control (MAPK9 (human)): 0.5%; kinase still bound, per cent of control (CSF1R (human)): 50%; kinase still bound, per cent of control (PIP4K2B (human)): 18%; kinase still bound, per cent of control (PIM3 (human)): 82%; kinase still bound, per cent of control (CHUK (human)): 83%; kinase still bound, per cent of control (HIPK2 (human)): 0.25%; kinase still bound, per cent of control (PAK6 (human)): 66%; kinase still bound, per cent of control (MAP2K2 (human)): 9.1%; kinase still bound, per cent of control (FER (human)): 47%; kinase still bound, per cent of control (PKN1 (human)): 66%; kinase still bound, per cent of control (ERBB4 (human)): 83%; kinase still bound, per cent of control (MELK (human)): 40%; kinase still bound, per cent of control (MAPK1 (human)): 73%; kinase still bound, per cent of control (PRKD2 (human)): 0.7%

What does the source list for CCc1nc(-c2cccc(C)c2)c(-c2ccnc(NC(=O)c3ccccc3)c2)s1?
kinase still bound, per cent of control (MLTK (human)): 9.4%; kinase still bound, per cent of control (NLK (human)): 4%; kinase still bound, per cent of control (MAP3K2 (human)): 100%; kinase still bound, per cent of control (MAP2K3 (human)): 96%; kinase still bound, per cent of control (BLK (human)): 17%; kinase still bound, per cent of control (FGFR1 (human)): 72%; kinase still bound, per cent of control (DCLK2 (human)): 98%; kinase still bound, per cent of control [1]: 80%; kinase still bound, per cent of control (PTK6 (human)): 30%; kinase still bound, per cent of control (GAK (human)): 4.4%; kinase still bound, per cent of control (CSNK1G2 (human)): 19%; kinase still bound, per cent of control (CSNK1E (human)): 0.05%; kinase still bound, per cent of control (CDK14 (human)): 99%; kinase still bound, per cent of control (NIM1 (human)): 100%; kinase still bound, per cent of control (EPHA8 (human)): 89%; kinase still bound, per cent of control (RIOK1 (human)): 100%; kinase still bound, per cent of control (IKBKB (human)): 100%; kinase still bound, per cent of control (STK11 (human)): 96%; kinase still bound, per cent of control (MAPK9 (human)): 0%; kinase still bound, per cent of control (CSF1R (human)): 76%; kinase still bound, per cent of control (PIP4K2B (human)): 93%; kinase still bound, per cent of control (MST1R (human)): 88%; kinase still bound, per cent of control (PIM3 (human)): 86%; kinase still bound, per cent of control (CHUK (human)): 100%; kinase still bound, per cent of control (HIPK2 (human)): 100%; kinase still bound, per cent of control [2]: 100%; kinase still bound, per cent of control (PAK6 (human)): 98%; kinase still bound, per cent of control (MAP2K2 (human)): 90%; kinase still bound, per cent of control (MAPKAPK5 (human)): 100%; kinase still bound, per cent of control (FER (human)): 60%; kinase still bound, per cent of control (PI4KB (human)): 100%; kinase still bound, per cent of control (CSNK1G3 (human)): 17%; kinase still bound, per cent of control (PKN1 (human)): 98%; kinase still bound, per cent of control (ERBB4 (human)): 2.8%; kinase still bound, per cent of control (RIPK2 (human)): 1.2%; kinase still bound, per cent of control (TGFBR2 (human)): 82%; kinase still bound, per cent of control (MAPK1 (human)): 96%; kinase still bound, per cent of control (STK38L (human)): 96%; kinase still bound, per cent of control (PRKD2 (human)): 46%

Which results are given for CC1=C(C(=O)Nc2cc3cn[nH]c3cc2F)C(c2ccc(C(F)(F)F)cc2)CC(=O)N1 (stereo unspecified)?
kinase still bound, per cent of control (MLTK (human)): 92%; kinase still bound, per cent of control (NLK (human)): 92%; kinase still bound, per cent of control (MAP3K2 (human)): 79%; kinase still bound, per cent of control (MAP2K3 (human)): 67%; kinase still bound, per cent of control (BLK (human)): 12%; kinase still bound, per cent of control (FGFR1 (human)): 73%; kinase still bound, per cent of control (DCLK2 (human)): 87%; kinase still bound, per cent of control (PTK6 (human)): 60%; kinase still bound, per cent of control (GAK (human)): 100%; kinase still bound, per cent of control (CSNK1G2 (human)): 100%; kinase still bound, per cent of control (CSNK1E (human)): 79%; kinase still bound, per cent of control (CDK14 (human)): 89%; kinase still bound, per cent of control (NIM1 (human)): 86%; kinase still bound, per cent of control (EPHA8 (human)): 71%; kinase still bound, per cent of control (RIOK1 (human)): 100%; kinase still bound, per cent of control (IKBKB (human)): 86%; kinase still bound, per cent of control (STK11 (human)): 100%; kinase still bound, per cent of control (MAPK9 (human)): 92%; kinase still bound, per cent of control (CSF1R (human)): 68%; kinase still bound, per cent of control (PIP4K2B (human)): 100%; kinase still bound, per cent of control (MST1R (human)): 55%; kinase still bound, per cent of control (PIM3 (human)): 92%; kinase still bound, per cent of control (CHUK (human)): 100%; kinase still bound, per cent of control (HIPK2 (human)): 87%; kinase still bound, per cent of control [2]: 28%; kinase still bound, per cent of control (PAK6 (human)): 90%; kinase still bound, per cent of control (MAP2K2 (human)): 64%; kinase still bound, per cent of control (MAPKAPK5 (human)): 100%; kinase still bound, per cent of control (FER (human)): 100%; kinase still bound, per cent of control (PI4KB (human)): 100%; kinase still bound, per cent of control (CSNK1G3 (human)): 90%; kinase still bound, per cent of control (PKN1 (human)): 19%; kinase still bound, per cent of control (ERBB4 (human)): 41%; kinase still bound, per cent of control (RIPK2 (human)): 77%; kinase still bound, per cent of control (MELK (human)): 99%; kinase still bound, per cent of control (TGFBR2 (human)): 85%; kinase still bound, per cent of control (MAPK1 (human)): 50%; kinase still bound, per cent of control (STK38L (human)): 12%; kinase still bound, per cent of control (PRKD2 (human)): 76%
